{"source": "patent US11214565B2", "about": "“Compound, compositions, and methods” (Denali Therapeutics Inc., priority 2015, dated 2022)", "data": [{"target": "LRRK2 G2019S enzyme (Homo sapiens (Human), UniProt Q5S007, G2019S)", "sequence (Q5S007 whole entry G2019S)": "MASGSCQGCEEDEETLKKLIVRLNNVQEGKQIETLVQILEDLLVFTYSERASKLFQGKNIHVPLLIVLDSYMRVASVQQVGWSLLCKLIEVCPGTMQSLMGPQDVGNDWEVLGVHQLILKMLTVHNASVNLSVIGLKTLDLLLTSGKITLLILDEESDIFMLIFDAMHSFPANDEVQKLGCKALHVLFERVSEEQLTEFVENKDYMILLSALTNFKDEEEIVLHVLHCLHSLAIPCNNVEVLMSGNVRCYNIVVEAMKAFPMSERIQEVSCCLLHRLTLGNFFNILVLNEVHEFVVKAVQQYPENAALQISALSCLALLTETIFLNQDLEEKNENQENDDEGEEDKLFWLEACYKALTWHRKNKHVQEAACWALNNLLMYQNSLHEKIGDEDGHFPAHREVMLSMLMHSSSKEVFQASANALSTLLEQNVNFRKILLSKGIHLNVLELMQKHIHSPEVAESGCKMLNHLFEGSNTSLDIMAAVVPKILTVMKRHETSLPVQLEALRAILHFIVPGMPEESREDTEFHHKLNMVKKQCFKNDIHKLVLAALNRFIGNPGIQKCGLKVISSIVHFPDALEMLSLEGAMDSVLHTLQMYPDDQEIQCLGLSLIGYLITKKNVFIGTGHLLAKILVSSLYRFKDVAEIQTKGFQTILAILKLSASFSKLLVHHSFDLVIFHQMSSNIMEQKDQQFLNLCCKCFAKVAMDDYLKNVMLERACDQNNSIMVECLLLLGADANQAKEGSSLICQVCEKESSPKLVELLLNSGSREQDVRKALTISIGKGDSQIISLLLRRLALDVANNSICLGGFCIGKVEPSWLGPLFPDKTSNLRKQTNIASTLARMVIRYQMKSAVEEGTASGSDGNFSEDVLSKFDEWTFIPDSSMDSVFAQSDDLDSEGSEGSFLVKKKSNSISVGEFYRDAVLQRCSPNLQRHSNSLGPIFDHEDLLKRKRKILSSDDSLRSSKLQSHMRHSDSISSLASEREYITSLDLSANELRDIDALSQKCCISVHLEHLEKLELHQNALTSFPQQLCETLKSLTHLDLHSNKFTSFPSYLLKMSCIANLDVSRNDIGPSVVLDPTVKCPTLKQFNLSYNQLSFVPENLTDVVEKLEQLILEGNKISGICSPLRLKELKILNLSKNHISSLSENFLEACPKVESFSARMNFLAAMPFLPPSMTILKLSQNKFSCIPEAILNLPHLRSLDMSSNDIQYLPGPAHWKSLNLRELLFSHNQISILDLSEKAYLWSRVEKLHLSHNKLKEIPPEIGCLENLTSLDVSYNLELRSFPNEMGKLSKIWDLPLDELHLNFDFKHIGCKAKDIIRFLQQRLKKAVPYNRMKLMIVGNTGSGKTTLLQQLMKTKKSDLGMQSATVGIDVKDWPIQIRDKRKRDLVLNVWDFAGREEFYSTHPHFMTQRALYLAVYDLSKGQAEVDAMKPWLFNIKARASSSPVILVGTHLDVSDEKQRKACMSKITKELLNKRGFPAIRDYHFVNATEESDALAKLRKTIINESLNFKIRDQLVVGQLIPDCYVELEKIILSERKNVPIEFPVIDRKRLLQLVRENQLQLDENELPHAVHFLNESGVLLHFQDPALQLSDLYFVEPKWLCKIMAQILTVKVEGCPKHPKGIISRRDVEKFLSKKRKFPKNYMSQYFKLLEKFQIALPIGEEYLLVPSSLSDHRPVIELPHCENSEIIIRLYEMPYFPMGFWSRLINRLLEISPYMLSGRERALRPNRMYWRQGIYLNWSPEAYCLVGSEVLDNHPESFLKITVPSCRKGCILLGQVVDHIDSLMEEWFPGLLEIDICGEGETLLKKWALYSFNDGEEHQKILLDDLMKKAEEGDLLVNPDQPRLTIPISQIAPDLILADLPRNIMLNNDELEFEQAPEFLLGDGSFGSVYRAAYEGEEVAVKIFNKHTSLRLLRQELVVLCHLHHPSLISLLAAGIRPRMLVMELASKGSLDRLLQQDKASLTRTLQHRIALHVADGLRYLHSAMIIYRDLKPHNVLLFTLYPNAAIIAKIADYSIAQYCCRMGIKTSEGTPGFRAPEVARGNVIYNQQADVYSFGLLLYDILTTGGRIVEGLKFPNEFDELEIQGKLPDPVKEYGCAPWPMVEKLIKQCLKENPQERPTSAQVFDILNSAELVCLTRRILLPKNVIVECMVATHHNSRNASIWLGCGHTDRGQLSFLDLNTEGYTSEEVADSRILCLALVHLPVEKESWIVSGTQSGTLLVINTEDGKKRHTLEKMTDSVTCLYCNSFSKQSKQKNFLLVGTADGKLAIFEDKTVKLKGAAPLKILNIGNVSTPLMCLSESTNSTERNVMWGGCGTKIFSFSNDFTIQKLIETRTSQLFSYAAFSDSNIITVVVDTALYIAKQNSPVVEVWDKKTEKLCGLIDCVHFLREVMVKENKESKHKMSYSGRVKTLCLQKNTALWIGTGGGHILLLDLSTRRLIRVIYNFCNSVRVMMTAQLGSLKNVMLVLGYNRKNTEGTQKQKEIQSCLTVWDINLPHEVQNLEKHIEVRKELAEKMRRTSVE", "experiment": "LRRK2 G2019S TR-FRET biochemical kinase assay (LRRKtide substrate)", "settings": "Table D-4; 5 nM LRRK2, 134 μM ATP, 60 minute reaction, 23° C.", "in_short": "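5 nM LRRK2 G2019S preincubated 20 min with LRRKtide and compound (3.162-fold dilution series) in Tris pH 7.5, MgCl2, EGTA, Brij-35, DTT, then reacted 60 min at 23 °C with 134 μM ATP. EDTA-stopped; pLRRKtide antibody detection, TR-FRET read at 340 nm excitation, 520/490–495 nm emission.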", "units": {"IC50": "nM"}, "values": [{"smiles": "CNc1nc(Nc2cn(C3CCC(n4ccnn4)C3)nc2C)ncc1C(F)(F)F", "note": "[Compound D-69]", "IC50": "< 30"}, {"smiles": "CNc1nc(Nc2cnn(C(C)COC(F)F)c2C)ncc1C(F)(F)F", "note": "[Compound D-70]", "IC50": "< 30"}, {"smiles": "CNc1nc(Nc2cnn([C@H]3C[C@H](n4cccn4)C3)c2C)ncc1C(F)(F)F", "note": "[Compound D-71]", "IC50": "< 30"}, {"smiles": "CNc1nc(Nc2cn(C3(c4ncnn4C)CCC3)nc2C)ncc1C(F)(F)F", "note": "[Compound D-72]", "IC50": "> 60"}, {"smiles": "CCNc1nc(Nc2cnn([C@H]3C[C@H](n4ccnn4)C3)c2C)ncc1C(F)(F)F", "note": "[Compound D-73]", "IC50": "< 30"}, {"smiles": "CCNc1nc(Nc2cn(C3Cc4nccn4C3)nc2C)ncc1C(F)(F)F", "note": "[Compound D-74]", "IC50": "< 30"}, {"smiles": "Cc1c(Nc2ncc(C(F)(F)F)c(NCC(F)F)n2)cnn1[C@H]1C[C@H](n2nccn2)C1", "note": "[Compound D-75]", "IC50": "< 30"}, {"smiles": "CCNC(=O)C(F)(F)n1cc(Nc2ncc(C(F)(F)F)c(NCC)n2)c(C)n1", "note": "[Compound D-76]", "IC50": "< 30"}, {"smiles": "CNc1nc(Nc2cnn([C@H]3C[C@@H](n4nccn4)C3)c2C)ncc1C(F)(F)F", "note": "[Compound D-77]", "IC50": "< 30"}, {"smiles": "CCNc1nc(Nc2cnn(C3CCCn4ccnc43)c2C)ncc1C(F)(F)F", "note": "[Compound D-78]", "IC50": "> 60"}, {"smiles": "CCNc1nc(Nc2cn(C3CCc4c(C)noc43)nc2C)ncc1C(F)(F)F", "note": "[Compound D-79]", "IC50": "< 30"}, {"smiles": "CCNc1nc(Nc2cn(C(C)COC(F)F)nc2C)ncc1C(F)(F)F", "note": "[Compound D-80]", "IC50": "< 30"}, {"smiles": "CCNc1nc(Nc2cnn([C@H]3C[C@@H](N4CCOCC4)C3)c2C)ncc1C(F)(F)F", "note": "[Compound D-81]", "IC50": "< 30"}, {"smiles": "CCNc1nc(Nc2cnn(C(C)COC(F)F)c2C)ncc1C(F)(F)F", "note": "[Compound D-82]", "IC50": "< 30"}, {"smiles": "CNc1nc(Nc2cn([C@H]3C[C@@H](c4nncs4)C3)nc2C)ncc1C(F)(F)F", "note": "[Compound D-83]", "IC50": "< 30"}, {"smiles": "CCNc1nc(Nc2cnn([C@H]3C[C@H](c4cocn4)C3)c2C)ncc1C(F)(F)F", "note": "[Compound D-84]", "IC50": "< 30"}, {"smiles": "CCNc1nc(Nc2cnn([C@H]3C[C@H](n4nccn4)C3)c2C)ncc1Br", "note": "[Compound D-85]", "IC50": "< 30"}, {"smiles": "Cc1c(Nc2ncc(C(F)(F)F)c(NCC(F)F)n2)cnn1[C@H]1C[C@H](n2cccn2)C1", "note": "[Compound D-87]", "IC50": "< 30"}, {"smiles": "CCNc1nc(Nc2cnn([C@H]3C[C@H](n4cc(F)cn4)C3)c2C)ncc1C(F)(F)F", "note": "[Compound D-88]", "IC50": "< 30"}, {"smiles": "CCNc1nc(Nc2cnn([C@H]3C[C@H](c4nncs4)C3)c2C)ncc1C(F)(F)F", "note": "[Compound D-89]", "IC50": "< 30"}, {"smiles": "CNc1nc(Nc2cnn(C3CCC(n4nccn4)C3)c2C)ncc1C(F)(F)F", "note": "[Compound D-90]", "IC50": "< 30"}, {"smiles": "CCNc1nc(Nc2cnn(C3CCc4c(C)noc43)c2C)ncc1C(F)(F)F", "note": "[Compound D-91]", "IC50": "< 30"}, {"smiles": "CCNc1nc(Nc2cn(C3CCCn4ccnc43)nc2C)ncc1C(F)(F)F", "note": "[Compound D-92]", "IC50": "30 to 60"}, {"smiles": "CCNc1nc(Nc2cnn([C@H]3C[C@@H](n4cccn4)C3)c2C)ncc1C(F)(F)F", "note": "[Compound D-93]", "IC50": "< 30"}, {"smiles": "CNc1nc(Nc2cn([C@H]3C[C@H](n4cccn4)C3)nc2C)ncc1C(F)(F)F", "note": "[Compound D-94]", "IC50": "< 30"}, {"smiles": "CNc1nc(Nc2cn(C3CCCc4c3cnn4C)nc2C)ncc1C(F)(F)F", "note": "[Compound D-95]", "IC50": "> 60"}, {"smiles": "CCNc1nc(Nc2cnn(C3CCc4ncsc43)c2C)ncc1C(F)(F)F", "note": "[Compound D-97]", "IC50": "< 30"}, {"smiles": "CCNc1nc(Nc2cnn([C@H]3C[C@H](n4cccn4)C3)c2C)ncc1C(F)(F)F", "note": "[Compound D-98]", "IC50": "< 30"}, {"smiles": "CNc1nc(Nc2cn(C3CCn4c(Cl)cnc43)nc2C)ncc1C(F)(F)F", "note": "[Compound D-99]", "IC50": "< 30"}, {"smiles": "CCNc1nc(Nc2cn(C(F)(F)C(=O)NC)nc2C)ncc1C(F)(F)F", "note": "[Compound D-100]", "IC50": "< 30"}, {"smiles": "CCNc1nc(Nc2cn(C(F)(F)C(N)=O)nc2C)ncc1C(F)(F)F", "note": "[Compound D-101]", "IC50": "< 30"}, {"smiles": "CCNc1nc(Nc2cnn([C@H]3C[C@H](N4CCCC4=O)C3)c2C)ncc1C(F)(F)F", "note": "[Compound D-103]", "IC50": "< 30"}, {"smiles": "CCNc1nc(Nc2cnn(C3CCn4ccnc43)c2Cl)ncc1C(F)(F)F", "note": "[Compound D-104]", "IC50": "< 30"}]}]}
